Columns and labels:
GRK2 [1] = target: T1, GRK2 (Homo sapiens, UniProt P25098); test: ADPGlo GRK2 Inhibition Assay (Example 2); format: biochemical; conditions: ADP-Glo, 10 μM ATP; read-out: ADP Glo Enzymatic GRK2 Assay: IC50 (nM) (Example 2)
T1 sequence (P25098 1-689): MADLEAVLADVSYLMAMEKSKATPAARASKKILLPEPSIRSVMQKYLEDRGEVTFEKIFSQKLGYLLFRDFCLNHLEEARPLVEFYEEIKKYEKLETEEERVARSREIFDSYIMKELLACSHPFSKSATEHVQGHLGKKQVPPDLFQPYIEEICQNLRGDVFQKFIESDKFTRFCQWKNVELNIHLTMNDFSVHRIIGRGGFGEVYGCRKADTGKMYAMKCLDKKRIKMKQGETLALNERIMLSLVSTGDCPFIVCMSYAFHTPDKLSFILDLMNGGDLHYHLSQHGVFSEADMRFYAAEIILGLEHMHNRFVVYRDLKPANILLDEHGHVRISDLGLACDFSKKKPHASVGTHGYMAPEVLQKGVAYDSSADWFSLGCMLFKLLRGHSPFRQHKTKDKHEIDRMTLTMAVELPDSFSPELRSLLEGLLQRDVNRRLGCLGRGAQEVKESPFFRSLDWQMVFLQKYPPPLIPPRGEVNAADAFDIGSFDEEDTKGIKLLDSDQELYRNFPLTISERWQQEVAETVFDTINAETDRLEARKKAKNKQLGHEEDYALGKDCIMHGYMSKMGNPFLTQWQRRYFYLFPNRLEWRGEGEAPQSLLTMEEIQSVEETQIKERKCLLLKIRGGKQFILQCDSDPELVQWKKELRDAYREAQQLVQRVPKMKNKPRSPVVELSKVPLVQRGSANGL
Procedure: Assay: GRK2 (7.5 nM) was incubated with ATP (10 μM) and GRKtide (0.3 mg/mL) in 5 μL of assay buffer (see above) for 180 min at room temperature. HTS was performed using 1 μM compound. Compounds were dissolved in 100% DMSO, serially diluted tree-fold from 100 μM concentration to 46 nM and transferred (50 nL) into assay ready plate.
(§1) Materials: GRK2 was purchased from SignalChem (Cat #A14-10G, Lot #X645-3). Substrate GRKtide was from SignalChem (Cat #G46-58, Lot #R339-6). ADP-Glo Kinase Assay from Promega (Cat #V9102). Assay buffer consisted of 25 mM HEPES (pH7.5), 10 mM MgCl2, 0.01% Tween-20, 1 mM DDT. 384-well white plates were from Greiner Bio-Rad (Item #784075).
HTS protocol: Take 384 well plate with 50 nL of compound in columns 3-22/DMSO solution 1-2,23-24. Add 2.5 μL assay buffer to columns 23 and 24 using Thermo Scientific Multidrop Combi Dispenser. Add 2.5 μL of 2× enzyme solution (15 nM in 1× assay buffer) using Thermo Scientific Multidrop Combi Reagent Dispenser to all columns except of 23 and 24. Incubate for 15 minutes. Fill plate with 2.5 μL of 2× substrate mix (20 μM ATP and 0.6 mg/mL GRKtide in 1× assay buffer) using Thermo Scientific Multidrop Combi Reagent Dispenser. Spin 15 seconds at 1000 rpm and incubate for 180 min at room temperature. Add 5 μL ADP-Glo reagent to all the wells. Spin 15 seconds at 1000 rpm and incubate for 40 min at room temperature. Add 10 μL Detection solution to all the wells. Incubate for 30 min at room temperature. Read plate in Luminescent mode on BMG PheraStar FSX (gain=3600).
Data Analysis: Data were analyzed in GraphPad Prism 8.0.2. Each HTS plate contains compounds in columns 3-22, controls (enzyme, no compound) in columns 1 and 2, and blanks (no enzyme) in columns 23 and 24. HTS percent inhibition was calculated for each compound from the signal in luminescence units and the mean of the plate controls and the mean of the plate blanks using the following equation: % Inhibition=100*(1−((signal−blank mean)/(control mean−blank mean))). At the final stage of data processing, we obtain dose-response curves, tables and SDF-files with the results of screening for each substance.

PAXF1657 KO Clone #4 = test: 7-day cellular proliferation assay (CellTiter-Glo), PAXF1657 KO Clone #4; format: cell-based; conditions: 168 h, 7-day, read-out: 7-day proliferation assay: IC50 GeoMean (uM) [Cell Line: PAXF1657 KO Clone #4]
How it was run: (§2)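 Isogenic PAXF1657 pairs differing in GRK2 level (stable cDNA overexpression or CRISPR knockout, each with matched control) are seeded and allowed to attach overnight. Inhibitors span 30 μM-0.0002 μM in 0.3% DMSO for 3 plus 4 days at 37° C, 5% CO2, with a medium change between.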

GRK2 [2] = target: T1, GRK2; test: GRK2 Degradation Assay and Western Blot in PAXF1657 cells; format: cell-based; set-up: endogenous in cells; host or cells: PAXF1657; conditions: PAXF1657 EV, 24 hrs; for inhibition at 0.3 µM: read-out: % GRK2 degradation at 0.3 uM in PAXF1657 EV (24 hrs); for inhibition at 1 µM: read-out: % GRK2 degradation at 1 uM in PAXF1657 EV (24 hrs); for inhibition at 3 µM: read-out: % GRK2 degradation at 3 uM in PAXF1657 EV (24 hrs)
How it was run: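 GRK2 degradation judged by immunoblot: NP40 lysates separated by SDS-PAGE and probed for GRK2 and β-actin, with HRP/ECL detection. Lysates came from PAXF1657 cells exposed to 0–10 μM compound for 6–24 h after reaching 70% confluency.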

GRK2 [3] = target: T1, GRK2; test: Second ADPGlo GRK2 Inhibition Assay (Example 3); format: biochemical; conditions: ADP-Glo, 20 μM ATP; read-out: Second ADPGlo Enzymatic GRK2 Assay: IC50 (nM) (Example 3)
Procedure: Assay: GRK2 (2 nM) was incubated with ATP (20 μM) and GRKtide (1.2 mg/mL) in 11 μL of assay buffer (see above) for 180 min at room temperature. Compounds were dissolved in 100% DMSO, serially diluted 3.16-fold from 100 μM with 10 concentration points and transferred as 100× into assay plate (final compounds concentration in the reaction plate from 1 μM).
as §1, with “of 20” for “of 25”, “(pH7.5), 20” for “(pH7.5), 10”, “Tween-20, 0.05” for “Tween-20, 1”, “from Corning (Cat #4513).” for “from Greiner Bio-Rad (Item #784075).”
HTS protocol: Add 5.5 μL of 2× substrate-enzyme mix into all columns except of 1-2 and 24 of reaction plate. Spin 15 seconds at 200 g. Transfer 1 ul of compounds from the plate with serial dilutions (384 well plate with 22 uL of compound in columns 3-22/DMSO solution 1-2,23-24) to Dilution plate (384 well plate with 49 uL of buffer with 2×40 μM ATP). After mixing transfer 5.5 ul from Dilution plate to Reaction plate (to 5.5 μL of 2× substrate-enzyme mix). Spin 15 seconds at 200 g and incubate for 180 min at room temperature with sealing. Add 3 μL ADP-Glo reagent to all the wells. Spin 15 seconds at 200 g and incubate for 40 min at room temperature. Add 6 μL Detection solution to all the wells. Incubate for 30 min at room temperature. Read plate using ClarioStar Plus (BMG).
Data Analysis: Data were analyzed in GraphPad Prism 5.0.2. Each HTS plate contains compounds in columns 3-22, controls (enzyme, no compound) in column 23, and blanks (no enzyme) in columns 2. HTS percent inhibition was calculated for each compound from the signal in luminescence units and the mean of the plate controls and the mean of the plate blanks using the following equation: % Inhibition=100*(1-(signal-blank mean)/(control mean-blank mean)).

PAXF1657 EV = test: 7-day cellular proliferation assay (CellTiter-Glo), PAXF1657 EV; format: cell-based; conditions: 168 h, 7-day, read-out: 7-day proliferation assay: IC50 GeoMean (uM) [Cell Line: PAXF1657 EV]
How it was run: as §2

Cn1c(CNc2cccc(C(=O)NCc3cccc(OCCCCCCOCCOCCOCCOCC(=O)Nc4cccc5c4CN(C4CCC(=O)NC4=O)C5=O)c3)c2)nnc1-c1ccncn1 (stereo not shown) [Compound D71]
IC50 (GRK2 [1]): < 100 nM

Cc1ncsc1-c1ccc(CNC(=O)[C@@H]2C[C@@H](O)CN2C(=O)[C@@H](NC(=O)CCCCCCOc2cccc(CNC(=O)c3cccc(NCc4nnc(-c5ccncn5)n4C)c3)c2)C(C)(C)C)cc1 [Compound D96]
IC50 (PAXF1657 KO Clone #4): > 10 µM | inhibition at 0.3 µM (GRK2 [2]): 19% | inhibition at 1 µM (GRK2 [2]): 31% | inhibition at 3 µM (GRK2 [2]): 6% | IC50 (GRK2 [3]): < 100 nM | IC50 (PAXF1657 EV): 1 to 10 µM

Cn1c(CNc2cccc(C(=O)NCc3cccc(OCCCCCCOCCOCC(=O)Nc4cccc5c4CN(C4CCC(=O)NC4=O)C5=O)c3)c2)nnc1-c1ccncn1 (stereo not shown) [Compound D72]
IC50 (PAXF1657 KO Clone #4): 1 to 10 µM | inhibition at 0.3 µM (GRK2 [2]): 36% | inhibition at 1 µM (GRK2 [2]): 59% | inhibition at 3 µM (GRK2 [2]): 64% | IC50 (GRK2 [1]): < 100 nM | IC50 (PAXF1657 EV): 1 to 10 µM

Cn1c(CNc2cccc(C(=O)NCc3ccc(OCCCCCCOCCOCCOCCCCCC(=O)Nc4cccc5c4CN(C4CCC(=O)NC4=O)C5=O)cc3)c2)nnc1-c1ccncn1 (stereo not shown) [Compound D65]
IC50 (PAXF1657 KO Clone #4): > 10 µM | inhibition at 0.3 µM (GRK2 [2]): 36% | inhibition at 1 µM (GRK2 [2]): 64% | inhibition at 3 µM (GRK2 [2]): 67% | IC50 (GRK2 [3]): < 100 nM | IC50 (PAXF1657 EV): < 1 µM
